How the values were obtained:
[1] = Comparative experiment of manufacturing method: solubility of cilostazol in HP-β-CD, dissolving method (1) vs (2); format: physicochemical
Protocol: To cilostazol suspension (0.5%, suspended in physiological saline) was added HP-β-CD powder so that the final concentration of the HP-β-CD should be 5-20%, and the mixture was completely dissolved (the procedure is termed as “dissolving method (1)”). On the contrary, to HP-β-CD solution (5-20%, dissolved in physiological saline) was added cilostazol powder (final concentration: 0.5%), and the mixture was completely dissolved (the procedure is termed as “dissolving method (2)”). Both the above solutions were stirred at 25° C. for 24 hours under the shade, then filtrated with membrane filter (pore size: 0.2 μm), and compared about the solubility of the solutions. […] Actually, it needed 10 minutes' stirring for the solution derived from dissolving method (1) to reach the state of the dissolution curve shown in FIG. 1. […] (The above concentrations are shown as weight/volume %.)

[2] = Dissolution experiment of cilostazol nano (nano-CLZ) in HP-β-CD, dissolving method (1) vs (2); format: physicochemical
Protocol: CLZ and an excipient were mixed in a ratio of about 80%:20% to give a nano-CLZ powder. To a nano-CLZ suspension (0.5% CLZ suspension: which was prepared by suspending 120 mg of the nano-CLZ powder in 20 mL of purified water), HP-β-CD powder was added and the mixture was dissolved so that the final concentration of HP-β-CD should be 5-20% (dissolving method (1)); while 120 mg of the nano-CLZ powder was added to a HP-β-CD solution (which was prepared by dissolving HP-β-CD in purified water so that the final concentration of HP-β-CD should be 5-20%), and the mixture was dissolved (the final concentration of CLZ is 0.5%) (dissolving method (2)). Both the above solutions were stirred at 25° C. for 24 hours under the shade, then filtrated with membrane filter (pore size: 0.2 μm), and compared about the solubility of the solutions.
Actually, it needed 30 minutes' stirring for the solution derived from dissolving method (1) to reach the state of the dissolution curve shown in FIG. 2. […] (The above concentrations are shown as weight/volume %.)

SMILES: O=C1CCc2cc(OCCCCc3nnnn3C3CCCCC3)ccc2N1 [cilostazol, 6-[4-(1-cyclohexyl-1H-tetrazol-5-yl)butoxy]-3,4-dihydrocarbostyril]
- solubility of cilostazol, dissolving method (1) compared with dissolving method (2) ([1]; 0.5% cilostazol, 5-20% HP-β-CD in physiological saline, stirred 25° C. 24 hours under the shade, 0.2 μm filtrate, FIG. 1): tended to increase more
- stirring needed to reach the state of the dissolution curve ([1]; dissolving method (1): HP-β-CD powder added to cilostazol suspension, FIG. 1): 10 min
- solubility after 10 minutes stirring relative to the solubility shown in FIG. 1 ([1]; dissolving method (2): cilostazol powder added to HP-β-CD solution): one fifth or less
- solubility of cilostazol, dissolving method (1) compared with dissolving method (2) ([2]; nano-CLZ powder, 0.5% CLZ, 5-20% HP-β-CD in purified water, stirred 25° C. 24 hours under the shade, 0.2 μm filtrate, FIG. 2): tended to increase more
- stirring needed to reach the state of the dissolution curve ([2]; nano-CLZ, dissolving method (1), FIG. 2): 30 min
- solubility after 30 minutes stirring relative to the solubility shown in FIG. 2 ([2]; nano-CLZ, dissolving method (2)): half or less

Source: patent US8686001B2, “Medicament for treating glaucoma comprising as an active ingredient cyclodextrin-clathrate compound of cilostazol” (Otsuka Pharmaceutical Co., Ltd., priority 2007, dated 2014)
